Experimental findings from paper PMC7933320, “Cytochalasins from Xylaria sp. CFL5, an Endophytic Fungus of Cephalotaxus fortunei” (Natural Products and Bioprospecting, 2020) are described below.

The target of series [1] is T1, LAG3/MHC II (Homo sapiens, UniProt P18627).
T1 sequence (P18627 23-450 limits assumed): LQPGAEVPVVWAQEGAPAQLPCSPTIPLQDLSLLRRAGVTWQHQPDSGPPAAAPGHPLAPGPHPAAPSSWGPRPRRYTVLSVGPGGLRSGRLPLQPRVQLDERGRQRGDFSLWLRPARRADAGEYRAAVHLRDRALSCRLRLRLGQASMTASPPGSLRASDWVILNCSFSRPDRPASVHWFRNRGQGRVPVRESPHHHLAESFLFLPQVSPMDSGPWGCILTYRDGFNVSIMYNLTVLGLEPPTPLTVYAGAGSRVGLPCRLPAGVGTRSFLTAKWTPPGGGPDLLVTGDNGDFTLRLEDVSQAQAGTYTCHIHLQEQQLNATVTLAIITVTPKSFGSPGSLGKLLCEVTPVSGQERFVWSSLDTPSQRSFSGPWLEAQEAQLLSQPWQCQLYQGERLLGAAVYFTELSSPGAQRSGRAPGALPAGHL
Put plainly: LAG3/MHC II binding assay (HTRF, Cisbio kit). Conditions: for inhibition at 50 µM: read-out: inhibition rate against LAG3/MHC II. (In general: Time-resolved FRET reads energy transfer from a long-lived donor to a nearby acceptor.)
Description: Utilizing HTRF (Homogeneous Time-resolved Fluorescence) technology [34, 35], the inhibition activity of tested compounds interfering in the interaction between MHC II and LAG3 proteins was evaluated. The activity was measured using LAG3/MHC II binding assay kit commercially available from Cisbio. […] 2 μL tested solutions, 4 μL Tag1-LAG3 protein, and 4 μL Tag2-MHC II protein were added in sterile 96-well dishes. After incubation for 15 min in room temperature, 5 μL anti-Tag1-Tb^3+ and 5 μL anti-Tag2-XL665 (or 10 μL of pre-mixed anti-tag detection reagents) were added into each well. The concentration of DMSO in each well was kept below 0.5% and the final volume in each well was 20 μL in the moment. Then the 96-well dishes were kept incubating for 1 h to overnight at room temperature. Subsequently, remove the plate sealer and read specific emission signal at 665 nm on an HTRF compatible reader. […] The negative control consisted of 4 μL Tag2-MHC II protein, 5 μL anti-Tag1-Tb^3+ and 5 μL anti-Tag2-XL665, as well as 6 μL diluent. In blank control, 5 μL anti-Tag1-Tb^3+, 10 μL diluent, and 5 μL detection buffer were existed.
(§1) Using the following fluorescence intensity (F) measurements at 665 nm, such as the signals of positive control (Fp), blank control (Fb), and experimental groups (Fe), the inhibition rate was calculated at each of the compound concentration levels. The inhibitory activity of compound against the interaction of LAG3 with MHC II was evaluated based on the formula as follow: Inhibition rate = (Fp − Fe)/(Fp − Fb) × 100%. IC50 values were calculated by linear regression of a dose-dependent inhibition rate curve.

Series [2] has as its target T2, LAG3/FGL1 (Homo sapiens, UniProt P18627).
T2 sequence (P18627 23-450 limits assumed): T1 sequence (P18627 23-450 limits assumed)
Description: LAG3/FGL1 binding assay (HTRF, Cisbio kit). To be noted: for inhibition at 50 µM: read-out: inhibition rate against LAG3/FGL1.
Description: as §1
The tested principles and methods were similar to those of LAG3/MHC II. Using LAG3/FGL1 binding assay kit from Cisbio, the inhibition activity of tested compounds on the binding between LAG3 and MHC II was evaluated. […] Moreover, the compositions of tested groups, positive control, negative control, blank control were analogical with those of LAG3/MHC II kit. The experimental operations and statistical analysis were also identical with above-mentioned LAG3/MHC II kit.

A short description of series [3]: Cytotoxicity by the CCK8 assay. The series is classed as cell-based. Conditions: human, AGS cells, read-out: inhibition rate, cytotoxicity against AGS cells. On the procedure: With adriamycin as the positive control, compounds 1, 4–9 were assessed for cytotoxicity against AGS, U251, and MDA-MB-231 by the CCK8 assay (Tables 3 and 4).

The IC50 is the point on the concentration scale where inhibition reaches its midpoint.

Regarding `CC(=O)OC1C=CC(C)C(=O)C(C)CC=CC2C=C(C)C(C)C3C(Cc4ccccc4)NC(=O)C213` (stereo not shown) [Compound 1, xylariasin A], the IC50 in series [1] was found to be 4.74 µM; in series [2], 11.8 µM. For the same compound, the results for the inhibition at 50 µM in series [1] and in series [2] were 82.4% and 83.9%, respectively.
With `CC(=O)OC1C=CC(C)(O)C(=O)C(C)CC=CC2C=C(C)C(C)C3C(Cc4ccccc4)NC(=O)C213` (stereo not shown) [Compound 4, zygosporin G], the inhibition at 50 µM stood at 55.7% in series [1] and 24.9% in series [2].
With `CC(=O)OC1C=CC(C)(O)C(=O)C(C)CC=CC2C=C(CO)C(C)C3C(Cc4ccccc4)NC(=O)C213` (stereo not shown) [Compound 5, 12-hydroxyl zygosporin G], in series [1], the IC50 is 3.18 µM and the inhibition at 50 µM came out at 85.3%. The inhibition at 50 µM in series [2] is 79.1%.
As for `C=C1[C@@H](C)[C@H]2[C@H](Cc3ccccc3)NC(=O)[C@]23[C@H](OC(C)=O)/C=C/[C@@](C)(O)C(=O)[C@@H](C)C/C=C/[C@H]3[C@@H]1O` [Compound 6, cytochalasin D], in series [3], the inhibition at 5 µM worked out at 94%. Also, the inhibition at 50 µM in series [2] is 2.66%.
`C=C1C(C)C2C(Cc3ccccc3)NC(=O)C23C(OC(C)=O)C=CC(C)C(=O)C(C)CC=CC3C1O` (stereo not shown) [Compound 7, zygosporin E]: in series [1], the IC50 came to 2.37 µM and the inhibition at 50 µM is 82.7%. Moreover, in series [2], the IC50 was 4.39 µM and the inhibition at 50 µM was found to be 92.7%.
On the same counts, the results for `CC(=O)OC1C=CC(C)(O)C(=O)C(C)CC=CC2C(=O)C(C)C(C)C3C(Cc4ccccc4)NC(=O)C123` (stereo not shown) [Compound 8] are 2.58 µM, 78.9%, 7.45 µM and 92.5%.
Regarding `CC(=O)OC1C=CC(C)(O)C(=O)C(C)CC=CC2C(O)C(C)=C(C)C3C(Cc4ccccc4)NC(=O)C123` (stereo not shown) [Compound 9, cytochalasin C], the inhibition at 50 µM in series [1] is 77.4%; in series [2], 58.4%. Further, the inhibition at 5 µM in series [3] was 64%.
